Test results: patent US5336621A, “Divalent hapten derivatives” (Hoechst Celanese Corporation, priority 1988, dated 1994)

Test: Solubility comparison for bis-(theophylline-8-butyryl)-diamides
Format: physicochemical
Description: The bis-(theophylline-8-butyryl)-diamides of 1,6-hexanediamine and 4,9-dioxa-1,12-dodecanediamine (examples 2 and 3) were each dissolved in dimethylsulfoxide. The 4,9-dioxa-1,12-dodecanediamide dissolved readily to give a solution of 10 mg/0.5 ml at room temperature.

solution obtained in dimethylsulfoxide (required heating to obtain a solution in dimethylsulfoxide) | behaviour on dilution of DMSO solution into aqueous phosphate buffer (10 mg/0.5 ml DMSO solution diluted into 2 ml of 50 mM aqueous sodium phosphate buffer (pH 7.5)) | solution obtained in dimethylsulfoxide (dissolved readily in dimethylsulfoxide, room temperature) | SMILES | behaviour on dilution of DMSO solution into aqueous phosphate buffer (10 mg/2 ml DMSO solution diluted into a two-fold volume of pH 7.5 phosphate buffer)
10 mg/2 ml |  |  | Cn1c(=O)c2[nH]c(CCCC(=O)NCCCCCCNC(=O)CCCc3nc4c([nH]3)c(=O)n(C)c(=O)n4C)nc2n(C)c1=O [Example 2, bis-(Theophylline-8-butyryl)-1,6-hexanediamine] | immediate heavy precipitation of divalent hapten was noted
 | clear, stable solution | 10 mg/0.5 ml | Cn1c(=O)c2[nH]c(CCCC(=O)NCCCOCCCCOCCCNC(=O)CCCc3nc4c([nH]3)c(=O)n(C)c(=O)n4C)nc2n(C)c1=O [Example 3, bis-(Theophylline-8-butyryl)-4,9-dioxa-1,12-dodecane-diamide] | 
